How the values were obtained:
[1] = test system: 19 enzymes on the methyltransferase selectivity panel (Type I and Type II PRMTs and lysine methyltransferases); test: methyltransferase selectivity panel; type: biochemical; settings: PRMT5 tool compounds
From the text: FIG. 6: Phylogenetic tree highlighting the methyltransferases tested in the selectivity panel. […] PRMT9 is shown for relationship purposes only within the family tree and was not evaluated in the panel. Figure adapted from Richon V M. et al.
PRMT9/FBXO11, which is the other Type II PRMT and the only PRMT to lack the THW loop, was not included due to the lack of a functional enzyme assay.

[2] = test system: MDM4 splicing, SDMA, p53 and p21 in MCL lines; test: MDM4 splicing (RT-PCR) and SDMA/p53/p21 Western in MCL lines; type: cell-based; settings: Z138 cells
Description: To understand whether p53 activation is associated with MDM4 isoform switching, MDM4 alternative splicing was analyzed. […] The role of the p53 pathway in the biology of the response of p53 wild-type MCL cells to PRMT5 inhibition is being evaluated.

[3] = test system: cellular splicing in lymphoma cell lines; test: RNA-sequencing splicing analysis in lymphoma cell lines; type: cell-based
Description: A. Mechanisms of regulation of cellular splicing (adapted from Bezzi M. et al.). B. Analysis of intron expression in lymphoma lines treated with 0.1 or 0.5 μM Compound B.
A. Quantification of isoform switches in 4 lymphoma cell lines treated with Compound B (0.1 and 0.5 μM) for 2 and 4 days. B. Overlap of isoform switches in 4 lymphoma lines. C. List of genes that undergo alternative splicing in all 4 lymphoma lines (overlap of 4 cell lines).
PRMT5 methylates histones and proteins involved in RNA processing and therefore PRMT5 inhibition is expected to have a profound effect on cellular mRNA homeostasis. To further decipher cellular mechanisms that are regulated by PRMT5 and contribute to the cellular response to PRMT5 inhibitors, global gene expression changes were evaluated in lymphoma models sensitive to PRMT5 inhibition. To elucidate gene expression changes that occur in lymphoma cell lines upon PRMT5 inhibitor treatment, 4 sensitive lymphoma lines (2 MCL lines-Z138 and Granta-519 and 2 DLBCL lines-DOHH2 and RL) were profiled by RNA-sequencing.
Since PRMT5 methylates spliceosome subunits and PRMT5 inhibition attenuates arginine methylation of a number of proteins involved in splicing, the effect of PRMT5 inhibin on cellular splicing was studied. The changes in RNA splicing were assessed in the lymphoma RNA-seq dataset described above. […]

[4] = test system: SKBR3, MDA-MB-468, MCF-7, ZR-75-1 and Z-138 cells; test: longer-term growth/death assay in breast and MCL cell lines; type: cell-based; settings: SKBR3, MDA-MB-468 and MCF-7 cells, 7-10 days
[5] = test system: SDMA, MDM4 splicing, p53 in GBM and lymphoma cell lines; test: SDMA, MDM4 splicing and p53 in GBM and lymphoma cell lines; type: cell-based; settings: 1 μM
Description: Next, effects on cellular methylation and the p53 pathway were evaluated in GBM cells treated with a PRMT5 inhibitor by measuring SDMA, p53 and p21 protein levels and MDM4 splicing (FIG. 27). […] Alternative MDM4 splicing was detected in all cell lines but SF539 which are p53 mutant and have low basal expression of the long MDM4 isoform (FIG. 27, panel A). p53 levels increased in all cell lines, while the induction of p21 protein was observed only in cell lines that have wild-type p53 (Z138 (MCL), U87-MG and A172 (GBM)). […] The role of p53 in the response of GBM cell lines to PRMT5 inhibition will be further tested in future studies. Additionally, the effects of PRMT5 inhibition on cell cycle and neural differentiation in GBM models are being explored.

[6] = test system: xenograft models of mantle cell lymphoma; test: xenograft models of mantle cell lymphoma (summary statement); type: in vivo
From the text: […] • The strongest mechanistic link currently described between PRMT5 and cancer is in MCL. PRMT5 is frequently overexpressed in MCL and is highly expressed in the nuclear compartment where it increases levels of histone methylation and silences a subset of tumor suppressor genes. […] The vast majority of SDMA containing proteins were factors that are involved in cellular splicing and RNA processing (SmB, Lsm4, hnRNPH1 and others), transcription (FUBP1) and translation highlighting the role of PRMT5 as an important regulator of cellular RNA homeostasis.

[7] = test system: Z-138 MCL xenograft; test: 21-day efficacy study in Z-138 MCL xenograft model; type: in vivo; settings: all groups in all efficacy studies presented
Description: B. Quantified SDMA western data from tumors harvested at the end of the efficacy study (3 hours post last dose).

[8] = test system: MCL cell lines; test: 6-day growth/death assay in a panel of MCL lines; type: cell-based; settings: Mino, Jeko-1
From the text: FIG. 18: Activity of PRMT5 inhibitor and ibrutinib as single agents and in combination in MCL cell lines. […] C.
• The strongest mechanistic link currently described between PRMT5 and cancer is in MCL. PRMT5 is frequently overexpressed in MCL and is highly expressed in the nuclear compartment where it increases levels of histone methylation and silences a subset of tumor suppressor genes. Importantly, cyclin D1, the oncogene that is translocated in the vast majority of MCL patients, associates with PRMT5 and through a cdk4-dependent mechanism increases PRMT5 activity. PRMT5 mediates the suppression of key genes that negatively regulate DNA replication allowing for cyclin D1-dependent neoplastic growth. PRMT5 knockdown inhibits cyclin D1-dependent cell transformation causing death of tumor cells.

[9] = test system: MDA-MB-468 xenograft; test: MDA-MB-468 triple negative breast cancer xenograft model; type: in vivo; settings: 100 mg/kg BID
Description: Next, the efficacy of PRMT5 inhibition was evaluated in in vivo models of breast cancer.

[10] = test system: panel of cancer cell lines; type: cell-based; settings: most sensitive lymphoma lines (MCL and DLBCL)
From the text: (§1) DLBCL-diffuse large B-cell lymphoma, GBM-glioblastoma, MCL-mantle cell lymphoma, […]
as §1
The cell lines were selected to represent tumor types where PRMT5 activity has been reported to regulate key pathways and/or cell growth and survival (such as lymphoma and MCL, glioma, breast and lung cancer lines).

In the case of O=C(NC[C@H](O)CN1CCc2ccccc2C1)c1cc(NC2COC2)ncn1 [Compound E], the “selectivity for PRMT5/MEP50 over the other methyltransferases” value (shortened to “selectivity for PRMT5/MEP50”) [1] is reported as “Selectivity for PRMT5/MEP50 over the other methyltransferases was also observed”.

In the case of COc1ccc(C2=N[C@@H](c3ccc(Cl)cc3)[C@@H](c3ccc(Cl)cc3)N2C(=O)N2CCNC(=O)C2)c(OC(C)C)c1 [Nutlin-3, reference compound], the “p53 and p21 expression” value ([2]; 5 μM) is reported as “increased”.

In the case of O=C(NC[C@H](O)CN1CCc2ccccc2C1)c1ccnc(NC2CCC2)c1 [Compound B], the isoform switching ([3]; 0.1 and 0.5 μM, 2 and 4 days, 4 lymphoma cell lines) is reported as “induces isoform switching for a subset of genes”, the intron splicing ([3]; 0.1 or 0.5 μM, lymphoma cell lines) is reported as “attenuates the splicing of a subset of introns” and the “nature of response upon prolonged exposure” value [4] is reported as “cytotoxic response”. For the same compound, the “selectivity for PRMT5/MEP50” value [1] was “Selectivity for PRMT5/MEP50 over the other methyltransferases was also observed”, the MDM4 splicing [5] was “induces alternative splicing of MDM4” and the SDMA levels [5] was “decreases SDMA levels”. For the same compound, the p53 activation [5] was “activates p53”.

In the case of CC(=O)N1CCC(Nc2cc(C(=O)NC[C@H](O)CN3CCc4ccccc4C3)ncn2)CC1 [Compound C], the “tumor growth inhibition (TGI)” value [6] is reported as about 100%, the “nature of response upon prolonged exposure” value [4] is reported as “cytotoxic response” and the body weight [7] is reported as “no body weight loss”. The “sensitivity in 6-day growth/death assay” value [8] was “only moderately sensitive”, the “Maximal tumor growth inhibition (TGI)” value [9] was 83% and the “p53 and p21 expression” value ([2]; 200 nM) was “increased”. The gIC50 [10] was “single digit”.

In the case of CC(=O)N1CCC(Nc2cc(C(=O)NC[C@H](O)CN3CCc4ccccc4C3)ccn2)CC1 [Compound F], the “selectivity for PRMT5/MEP50” value [1] is reported as “Selectivity for PRMT5/MEP50 over the other methyltransferases was also observed”.
